In PubChem BioAssay (NCI):
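Briefly, cells in 96-well plates were exposed to five compound concentrations for 48 h, and endpoints were estimated by linear interpolation. TGI is the concentration that stops growth completely.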

What was measured:
Test in all cases: inhibition of tumour cell growth, NCI panel, 48 h
SW-620 colon = tested on: SW-620 colon
SK-MEL-2 melanoma = tested on: SK-MEL-2 melanoma
NCI/ADR-RES ovarian = tested on: NCI/ADR-RES ovarian
U251 CNS = tested on: U251 CNS
MOLT-4 leukemia = tested on: MOLT-4 leukemia
SNB-75 CNS = tested on: SNB-75 CNS
UACC-257 melanoma = tested on: UACC-257 melanoma
HOP-92 NSCLC = tested on: HOP-92 NSCLC
SK-MEL-5 melanoma = tested on: SK-MEL-5 melanoma
K-562 leukemia = tested on: K-562 leukemia
HCT-116 colon = tested on: HCT-116 colon
RPMI-8226 leukemia = tested on: RPMI-8226 leukemia
COLO 205 colon = tested on: COLO 205 colon
A498 renal = tested on: A498 renal
HCT-15 colon = tested on: HCT-15 colon
OVCAR-8 ovarian = tested on: OVCAR-8 ovarian
SR leukemia = tested on: SR leukemia
MALME-3M melanoma = tested on: MALME-3M melanoma
HCC-2998 colon = tested on: HCC-2998 colon
T-47D breast = tested on: T-47D breast
CAKI-1 renal = tested on: CAKI-1 renal
DLD-1 colon = tested on: DLD-1 colon
CCRF-CEM leukemia = tested on: CCRF-CEM leukemia
KM12 colon = tested on: KM12 colon
SN12C renal = tested on: SN12C renal
HL-60(TB) leukemia = tested on: HL-60(TB) leukemia
HS 578T breast = tested on: HS 578T breast
RXF 393 renal = tested on: RXF 393 renal
TK-10 renal = tested on: TK-10 renal
SNB-19 CNS = tested on: SNB-19 CNS
NCI-H460 lung = tested on: NCI-H460 lung
M14 melanoma = tested on: M14 melanoma
DMS 114 small cell lung = tested on: DMS 114 small cell lung
PC-3 prostate = tested on: PC-3 prostate
XF 498 CNS = tested on: XF 498 CNS
HOP-62 NSCLC = tested on: HOP-62 NSCLC
A549 NSCLC = tested on: A549 NSCLC
SNB-78 CNS = tested on: SNB-78 CNS
SK-OV-3 ovarian = tested on: SK-OV-3 ovarian
SF-295 CNS = tested on: SF-295 CNS
LOX IMVI melanoma = tested on: LOX IMVI melanoma
NCI-H522 lung = tested on: NCI-H522 lung
BT-549 breast = tested on: BT-549 breast
ACHN renal = tested on: ACHN renal
SK-MEL-28 melanoma = tested on: SK-MEL-28 melanoma
NCI-H23 lung = tested on: NCI-H23 lung
OVCAR-3 ovarian = tested on: OVCAR-3 ovarian
UO-31 renal = tested on: UO-31 renal
M19-MEL melanoma = tested on: M19-MEL melanoma
OVCAR-4 ovarian = tested on: OVCAR-4 ovarian
NCI-H226 lung = tested on: NCI-H226 lung
SF-268 CNS = tested on: SF-268 CNS
MDA-MB-435 = tested on: MDA-MB-435
HT29 colon = tested on: HT29 colon
IGROV1 ovarian = tested on: IGROV1 ovarian
EKVX NSCLC = tested on: EKVX NSCLC
OVCAR-5 ovarian = tested on: OVCAR-5 ovarian
786-0 renal = tested on: 786-0 renal
MDA-N = tested on: MDA-N
SF-539 CNS = tested on: SF-539 CNS
DU-145 prostate = tested on: DU-145 prostate
UACC-62 melanoma = tested on: UACC-62 melanoma
MCF7 breast = tested on: MCF7 breast
MDA-MB-231 breast = tested on: MDA-MB-231 breast

CC1(C)O[C@H]2OC3CCC(=O)CC3(O)[C@H]2O1 (stereo partly drawn)
TGI (SW-620 colon): > 100 µM | TGI (SK-MEL-2 melanoma): > 100 µM | TGI (NCI/ADR-RES ovarian): > 100 µM | TGI (U251 CNS): > 100 µM | TGI (MOLT-4 leukemia): > 100 µM | TGI (SNB-75 CNS): > 100 µM | TGI (UACC-257 melanoma): > 100 µM | TGI (HOP-92 NSCLC): > 100 µM | TGI (SK-MEL-5 melanoma): > 100 µM | TGI (K-562 leukemia): > 100 µM | TGI (HCT-116 colon): > 100 µM | TGI (RPMI-8226 leukemia): > 100 µM | TGI (COLO 205 colon): > 100 µM | TGI (A498 renal): > 100 µM | TGI (HCT-15 colon): > 100 µM | TGI (OVCAR-8 ovarian): > 100 µM | TGI (SR leukemia): > 100 µM | TGI (MALME-3M melanoma): > 100 µM | TGI (HCC-2998 colon): > 100 µM | TGI (T-47D breast): > 100 µM | TGI (CAKI-1 renal): > 100 µM | TGI (DLD-1 colon): > 100 µM | TGI (CCRF-CEM leukemia): > 100 µM | TGI (KM12 colon): > 100 µM | TGI (SN12C renal): > 100 µM | TGI (HL-60(TB) leukemia): > 100 µM | TGI (HS 578T breast): > 100 µM | TGI (RXF 393 renal): > 100 µM | TGI (TK-10 renal): > 100 µM | TGI (SNB-19 CNS): > 100 µM | TGI (NCI-H460 lung): > 100 µM | TGI (M14 melanoma): > 100 µM | TGI (DMS 114 small cell lung): > 100 µM | TGI (PC-3 prostate): > 100 µM | TGI (XF 498 CNS): 97.2 µM | TGI (HOP-62 NSCLC): > 100 µM | TGI (A549 NSCLC): > 100 µM | TGI (SNB-78 CNS): > 100 µM | TGI (SK-OV-3 ovarian): > 100 µM | TGI (SF-295 CNS): > 100 µM | TGI (LOX IMVI melanoma): > 100 µM | TGI (NCI-H522 lung): > 100 µM | TGI (BT-549 breast): > 100 µM | TGI (ACHN renal): > 100 µM | TGI (SK-MEL-28 melanoma): > 100 µM | TGI (NCI-H23 lung): > 100 µM | TGI (OVCAR-3 ovarian): > 100 µM | TGI (UO-31 renal): > 100 µM | TGI (M19-MEL melanoma): > 100 µM | TGI (OVCAR-4 ovarian): > 100 µM | TGI (NCI-H226 lung): > 100 µM | TGI (SF-268 CNS): > 100 µM | TGI (MDA-MB-435): > 100 µM | TGI (HT29 colon): > 100 µM | TGI (IGROV1 ovarian): > 100 µM | TGI (EKVX NSCLC): > 100 µM | TGI (OVCAR-5 ovarian): > 100 µM | TGI (786-0 renal): > 100 µM | TGI (MDA-N): > 100 µM | TGI (SF-539 CNS): > 100 µM | TGI (DU-145 prostate): > 100 µM | TGI (UACC-62 melanoma): > 100 µM | TGI (MCF7 breast): > 100 µM | TGI (MDA-MB-231 breast): > 100 µM

O=C(Sc1c(-c2ccccc2)c(=O)n(-c2ccccc2)c(=S)n1-c1ccccc1)c1ccco1
TGI (SW-620 colon): > 100 µM | TGI (SK-MEL-2 melanoma): > 100 µM | TGI (NCI/ADR-RES ovarian): > 100 µM | TGI (U251 CNS): > 100 µM | TGI (MOLT-4 leukemia): > 100 µM | TGI (SNB-75 CNS): > 100 µM | TGI (UACC-257 melanoma): > 31.6 µM | TGI (HOP-92 NSCLC): > 92.6 µM | TGI (SK-MEL-5 melanoma): > 100 µM | TGI (K-562 leukemia): > 100 µM | TGI (HCT-116 colon): > 100 µM | TGI (RPMI-8226 leukemia): > 83.7 µM | TGI (COLO 205 colon): > 100 µM | TGI (A498 renal): > 100 µM | TGI (HCT-15 colon): > 100 µM | TGI (OVCAR-8 ovarian): > 100 µM | TGI (SR leukemia): > 78.9 µM | TGI (MALME-3M melanoma): > 100 µM | TGI (HCC-2998 colon): > 100 µM | TGI (T-47D breast): > 100 µM | TGI (CAKI-1 renal): > 100 µM | TGI (CCRF-CEM leukemia): 69.3 µM | TGI (KM12 colon): > 100 µM | TGI (SN12C renal): > 100 µM | TGI (HL-60(TB) leukemia): 59.2 µM | TGI (HS 578T breast): > 100 µM | TGI (RXF 393 renal): > 100 µM | TGI (TK-10 renal): > 100 µM | TGI (SNB-19 CNS): > 100 µM | TGI (NCI-H460 lung): > 100 µM | TGI (M14 melanoma): > 100 µM | TGI (PC-3 prostate): > 100 µM | TGI (HOP-62 NSCLC): > 100 µM | TGI (A549 NSCLC): > 100 µM | TGI (SK-OV-3 ovarian): > 100 µM | TGI (SF-295 CNS): > 100 µM | TGI (LOX IMVI melanoma): > 100 µM | TGI (NCI-H522 lung): > 100 µM | TGI (BT-549 breast): > 100 µM | TGI (ACHN renal): > 100 µM | TGI (SK-MEL-28 melanoma): > 100 µM | TGI (NCI-H23 lung): > 100 µM | TGI (OVCAR-3 ovarian): > 100 µM | TGI (UO-31 renal): > 100 µM | TGI (OVCAR-4 ovarian): > 100 µM | TGI (NCI-H226 lung): > 100 µM | TGI (SF-268 CNS): > 100 µM | TGI (MDA-MB-435): > 100 µM | TGI (HT29 colon): > 100 µM | TGI (IGROV1 ovarian): > 100 µM | TGI (EKVX NSCLC): > 100 µM | TGI (OVCAR-5 ovarian): > 100 µM | TGI (786-0 renal): > 100 µM | TGI (MDA-N): > 100 µM | TGI (SF-539 CNS): > 100 µM | TGI (DU-145 prostate): > 100 µM | TGI (UACC-62 melanoma): > 100 µM | TGI (MCF7 breast): > 100 µM | TGI (MDA-MB-231 breast): > 100 µM
